Laboratory results as given in PubChem BioAssay (NCI).
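Protocol summary: plate cells (96-well), add compound at 5 concentrations, incubate 48 h, interpolate endpoints linearly. Definition used: TGI = concentration required for complete inhibition of growth.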

Tests used:
Assay in all cases: inhibition of tumour cell growth, NCI panel, 48 h
NCI-H522 lung = test system: NCI-H522 lung
SK-MEL-5 melanoma = test system: SK-MEL-5 melanoma
DU-145 prostate = test system: DU-145 prostate
MOLT-4 leukemia = test system: MOLT-4 leukemia
NCI-H226 lung = test system: NCI-H226 lung
ACHN renal = test system: ACHN renal
UO-31 renal = test system: UO-31 renal
M14 melanoma = test system: M14 melanoma
HOP-92 NSCLC = test system: HOP-92 NSCLC
SNB-75 CNS = test system: SNB-75 CNS
OVCAR-8 ovarian = test system: OVCAR-8 ovarian
T-47D breast = test system: T-47D breast
PC-3 prostate = test system: PC-3 prostate
LOX IMVI melanoma = test system: LOX IMVI melanoma
OVCAR-5 ovarian = test system: OVCAR-5 ovarian
MDA-N = test system: MDA-N
MCF7 breast = test system: MCF7 breast
MDA-MB-231 breast = test system: MDA-MB-231 breast
MDA-MB-435 = test system: MDA-MB-435
KM12 colon = test system: KM12 colon
K-562 leukemia = test system: K-562 leukemia
HS 578T breast = test system: HS 578T breast
OVCAR-3 ovarian = test system: OVCAR-3 ovarian
SR leukemia = test system: SR leukemia
NCI-H23 lung = test system: NCI-H23 lung
COLO 205 colon = test system: COLO 205 colon
SF-295 CNS = test system: SF-295 CNS
HT29 colon = test system: HT29 colon
CAKI-1 renal = test system: CAKI-1 renal
OVCAR-4 ovarian = test system: OVCAR-4 ovarian
NCI-H460 lung = test system: NCI-H460 lung
SF-268 CNS = test system: SF-268 CNS
TK-10 renal = test system: TK-10 renal
SK-MEL-2 melanoma = test system: SK-MEL-2 melanoma
HCT-15 colon = test system: HCT-15 colon
A549 NSCLC = test system: A549 NSCLC
HCT-116 colon = test system: HCT-116 colon
HCC-2998 colon = test system: HCC-2998 colon
UACC-257 melanoma = test system: UACC-257 melanoma
786-0 renal = test system: 786-0 renal
HL-60(TB) leukemia = test system: HL-60(TB) leukemia
SK-MEL-28 melanoma = test system: SK-MEL-28 melanoma
NCI/ADR-RES ovarian = test system: NCI/ADR-RES ovarian
SNB-19 CNS = test system: SNB-19 CNS
SF-539 CNS = test system: SF-539 CNS
IGROV1 ovarian = test system: IGROV1 ovarian
HOP-62 NSCLC = test system: HOP-62 NSCLC
SN12C renal = test system: SN12C renal
EKVX NSCLC = test system: EKVX NSCLC
MALME-3M melanoma = test system: MALME-3M melanoma
SW-620 colon = test system: SW-620 colon
RPMI-8226 leukemia = test system: RPMI-8226 leukemia
U251 CNS = test system: U251 CNS

Measured: TGI

CCOc1cc(C=O)ccc1O
> 100 µM: NCI-H522 lung | SK-MEL-5 melanoma | DU-145 prostate | MOLT-4 leukemia | NCI-H226 lung | ACHN renal | UO-31 renal | M14 melanoma | HOP-92 NSCLC | SNB-75 CNS | OVCAR-8 ovarian | T-47D breast | PC-3 prostate | LOX IMVI melanoma | OVCAR-5 ovarian | MDA-N | MCF7 breast | MDA-MB-231 breast | MDA-MB-435 | KM12 colon | K-562 leukemia | HS 578T breast | OVCAR-3 ovarian | SR leukemia | NCI-H23 lung | COLO 205 colon | SF-295 CNS | HT29 colon | CAKI-1 renal | OVCAR-4 ovarian | NCI-H460 lung | SF-268 CNS | TK-10 renal | SK-MEL-2 melanoma | HCT-15 colon | A549 NSCLC | HCT-116 colon | HCC-2998 colon | UACC-257 melanoma | 786-0 renal | HL-60(TB) leukemia | SK-MEL-28 melanoma | NCI/ADR-RES ovarian | SNB-19 CNS | SF-539 CNS | IGROV1 ovarian | HOP-62 NSCLC | SN12C renal | EKVX NSCLC | MALME-3M melanoma | SW-620 colon | RPMI-8226 leukemia | U251 CNS
